Read-outs that look alike come from different tables or passages of the source.
What was measured:
[1] = tested on: human nasopharyngeal cancer; assay type: in vivo, mice; conditions: for Number of live animals remaining in the groups after 30 days of treatment: mice, 30 per group
Protocol: The biological composition comprising […] per ml of activated and conditioned yeast cells of the strain Saccharomyces carlsbergensis Hansen strain AS2.116 was prepared by the methods described in Section 5.1 and subsections therein.
The animals were prepared in a similar manner as described in Section 8.1.
The mice injected with tumor cells were divided into 4 experimental groups of […] per group and one control group. The four experimental groups were triplicated […]. In group 2AY, the mice received 0.3 ml of the biological composition once per day. In group 2NY, the mice received 0.3 ml of the untreated yeast cells once per day. In group 2CTX, the mice were injected intravenously with 30 mg of cyclophosphamide (CTX) per kg body weight per day. In group 2CK1, the mice received 0.3 ml of physiological saline once per day.
The mice received the biological compositions, untreated yeast cells, CTX or saline on the same day as the tumor cells were transplanted. The mice in group 2CK2 also started receiving saline on the same day as the other four groups. The biological compositions, untreated yeast cells and saline were administered orally by a feeding tube and the CTX by intravenous injection for 30 consecutive days. The mice were observed over 6 months from the day of tumor inoculation and survival was recorded. The weight of the mice and the weight of the tumor were determined by standard techniques.

[2] = tested on: human nasopharyngeal cancer; assay type: in vivo; conditions: tumor-bearing mice, 30 consecutive days of treatment, sacrificed on 31st day
Protocol: The mice injected with tumor cells were divided into 4 experimental groups of ten mice per group and one control group. The four experimental groups were triplicated (i.e., using a total of 120 mice in the experimental groups).
The mice in group CK2 also started receiving saline on the same day as the other four groups. The biological compositions, untreated yeast cells and saline were administered orally by a feeding tube and the CTX by intravenous injection for 30 consecutive days.

[3] = tested on: human nasopharyngeal cancer; assay: rat model of human nasopharyngeal cancer, growth of the tumor; assay type: in vivo; conditions: tumor-bearing Wistar rats, 21 consecutive days of treatment, sacrificed on 22nd day
Protocol: (§1) The biological composition comprising 10^8 cells per ml of activated and conditioned yeast cells of the strain Saccharomyces carlsbergensis Hansen strain AS2.116 was prepared by the methods described in Section 5.1 and subsections therein.
The animals used to generate the nasopharyngeal cancer cells for the experiments were Wistar rats, male and female, 190 to 210 gram in body weight. The rats were starved for 24 hours before the surgery.
Human nasopharyngeal cancer samples (obtainable from Cancer Institute, The Chinese Academy of Medical Sciences, Beijing, China) were carefully selected before, during, and after surgery in order to ensure engraftment occurred at the original position in the rat. The nasopharyngeal cancer samples were obtained from patients who have not received any radiation, chemotherapy or immune enhancement treatment. Nasopharyngeal cancer samples were divided into sections of about 1 mm^3 in size and immediately stored in RPMI-1640 suspension after removal from the human patient.
The animals were generally anaesthetized. […]
The rats received the biological compositions, untreated yeast cells, TSPA or saline on the same day as the tumor cells were transplanted. […] On the 22nd day from tumor inoculation, the rats were sacrificed and the weight of the rats as well as the weight of the tumor were determined by standard techniques.

[4] = tested on: human nasopharyngeal cancer; assay: rat model of human nasopharyngeal cancer, survival time; assay type: in vivo, Wistar rats; conditions: for Number of live animals remaining in the groups after 21 days of treatment: rats, 30 per group
Protocol: as §1
The animals were prepared in a similar manner as described in Section 6.1.
The rats transplanted with tumor cells were divided into 4 experimental groups of ten rats per group and one control group. The four experimental groups were triplicated (i.e., using a total of 120 rats in the experimental groups). In group 2AY, the rats received 2.0 ml of the biological composition once per day. In group 2NY, the rats received 2.0 ml of the untreated yeast cells once per day. In group 2TSPA, the rats were injected intravenously 1.5 mg of thiotepa (TSPA) per kg body weight per day. In group 2CK1, the rats received 2.0 ml of physiological saline once per day.
The rats received the biological compositions, untreated yeast cells, TSPA or saline on the same day as the tumor cells were transplanted. The rats in group 2CK2 also started receiving saline on the same day as the other four groups. The biological compositions, untreated yeast cells and saline were administered orally by a feeding tube and the TSPA by intravenous injection for 21 consecutive days. The rats were observed over 6 months from the day of tumor inoculation and survival was recorded. The weight of the rats and the weight of the tumor were determined by standard techniques.

[5] = 0 month after cessation of treatment
[6] = 1 month after cessation of treatment
[7] = 2 months after cessation of treatment
[8] = 3 months after cessation of treatment
[9] = 4 months after cessation of treatment
[10] = 5 months after cessation of treatment
[11] = 6 months after cessation of treatment
[12] = mice that survived, observed over 6 months
[13] = rats that survived, observed over 6 months

O=P1(N(CCCl)CCCl)NCCCO1 (stereo not drawn) [CTX, cyclophosphamide]
Number of live animals remaining in the groups after 30 days of treatment [1, 5]: 30
Number of live animals remaining in the groups after 30 days of treatment [1, 6]: 27
Number of live animals remaining in the groups after 30 days of treatment [1, 7]: 17
Number of live animals remaining in the groups after 30 days of treatment [1, 8]: 11
Number of live animals remaining in the groups after 30 days of treatment [1, 9]: 3
Number of live animals remaining in the groups after 30 days of treatment [1, 10]: 0
Number of live animals remaining in the groups after 30 days of treatment [1, 11]: 0
survival of mice ([1]; observed over 6 months): all died during the experiment
mean weight of mice and standard deviation [2]: 19.7 ± 2.4 g
mean weight of tumor nodules and standard deviation [2]: 0.86 ± 0.13 g

S=P(N1CC1)(N1CC1)N1CC1 [TSPA, thiotepa]
mean weight of mice and standard deviation [1, 12]: all animals dead
mean weight of tumor nodules and standard deviation [1, 12]: all animals dead
mean weight of rats and standard deviation [3]: 207 ± 3.8 g
mean weight of tumor nodules and standard deviation [3]: 1.6 ± 0.74 mg
survival of rats ([4]; from injection of tumor cells): all died after four months from injection of tumor cells
mean weight of rats and standard deviation [4, 13]: all animals dead
mean weight of tumor nodules and standard deviation [4, 13]: all animals dead
Number of live animals remaining in the groups after 21 days of treatment [4, 5]: 30
Number of live animals remaining in the groups after 21 days of treatment [4, 6]: 26
Number of live animals remaining in the groups after 21 days of treatment [4, 7]: 24
Number of live animals remaining in the groups after 21 days of treatment [4, 8]: 17
Number of live animals remaining in the groups after 21 days of treatment [4, 9]: 7
Number of live animals remaining in the groups after 21 days of treatment [4, 10]: 0
Number of live animals remaining in the groups after 21 days of treatment [4, 11]: 0
